The numbers were not newly measured in article PMC12181400, “Leveraging viral genome sequences and machine learning models for identification of potentially selective antiviral agents” (Communications Chemistry, 2025), which cites them from elsewhere.

What all share (details): cited from earlier work
For data set [1], the system named is cell viability (tox21-car-agonist-p1).
Data set [2] concerns cell viability (tox21-ar-mda-kb2-luc-antagonist-p2).
The subject of data set [3] is cell viability (tox21-ap1-agonist-p1).
Data set [4] deals with cell viability (tox21-are-bla-p1).
Data set [5] relates to cell viability (tox21-ar-mda-kb2-luc-agonist-p3).
The test system of data set [6] is cell viability (tox21-car-antagonist-p1).
Setting [7] is: curve rank −9 to 9, 0 = inactive, ref NCATS Tox21 public data browser.

The structures appear in SMILES notation. Structures can show the parent of a compound that is named as a salt. Where two headings read alike, the source gives them in different places.

With `CCCC(=O)Nc1ccc(OCC(O)CNC(C)C)c(C(C)=O)c1` (stereo not drawn) [Acebutolol hydrochloride], the “tox21-car-agonist-p1-viability (curve rank)” value (“tox21-car-agonist-p1-viability” below) in data set [1] is 0. The “tox21-ar-mda-kb2-luc-antagonist-p2-viability (curve rank)” value in data set [2] is 0. For the same compound, the “tox21-ap1-agonist-p1-viability (curve rank)” value (“tox21-ap1-agonist-p1-viability” below) in data set [3] is recorded as 0. In addition, the “tox21-are-bla-p1-viability (curve rank)” value in data set [4] is listed as 0. Further, the “tox21-ar-mda-kb2-luc-agonist-p3-viability (curve rank)” value in data set [5] is given as 0. Besides, the “tox21-car-antagonist-p1-viability (curve rank)” value in data set [6] is on record as 0.
Regarding `CCCCCC(N)=O` [Hexanamide], the “tox21-car-agonist-p1-viability” value in data set [1] (setting [7]) is given as 0. The “tox21-ar-mda-kb2-luc-antagonist-p2-viability (curve rank)” value in data set [2] (setting [7]) is listed as 0. In addition, the “tox21-ap1-agonist-p1-viability” value in data set [3] (setting [7]) is listed as 0. Moreover, in data set [4] (setting [7]), the “tox21-are-bla-p1-viability (curve rank)” value is listed as 0. Further, in data set [5] (setting [7]), the “tox21-ar-mda-kb2-luc-agonist-p3-viability (curve rank)” value is on record as 0. Further, the “tox21-car-antagonist-p1-viability (curve rank)” value in data set [6] (setting [7]) is given as 0.
In the case of `C[C@H](O)C(=O)Nc1c(I)c(C(=O)NC(CO)CO)c(I)c(C(=O)NC(CO)CO)c1I` [Iopamidol], in data set [1], the “tox21-car-agonist-p1-viability” value is given as 0. Moreover, the “tox21-ar-mda-kb2-luc-antagonist-p2-viability (curve rank)” value in data set [2] is 0. In addition, the “tox21-ap1-agonist-p1-viability” value in data set [3] was 0. Also, in data set [4], the “tox21-are-bla-p1-viability (curve rank)” value was 0. The “tox21-ar-mda-kb2-luc-agonist-p3-viability (curve rank)” value in data set [5] is 0. Further, in data set [6], the “tox21-car-antagonist-p1-viability (curve rank)” value is 0.
Take `CN1C(C(=O)Nc2ccccn2)=C(O)c2ccccc2S1(=O)=O` [Piroxicam]: the “tox21-car-agonist-p1-viability” value in data set [1] was 0. In addition, in data set [2], the “tox21-ar-mda-kb2-luc-antagonist-p2-viability (curve rank)” value is recorded as 0. In addition, the “tox21-ap1-agonist-p1-viability” value in data set [3] is 0. Also, in data set [4], the “tox21-are-bla-p1-viability (curve rank)” value is 0. The “tox21-ar-mda-kb2-luc-agonist-p3-viability (curve rank)” value in data set [5] is reported as 0. Moreover, in data set [6], the “tox21-car-antagonist-p1-viability (curve rank)” value is reported as 0.
For `CN1Cc2c(N)cccc2C(c2ccccc2)C1` (stereo not drawn) [Nomifensine maleate], in data set [1], the “tox21-car-agonist-p1-viability” value is 0. In data set [2], the “tox21-ar-mda-kb2-luc-antagonist-p2-viability (curve rank)” value was 0. Besides, the “tox21-ap1-agonist-p1-viability” value in data set [3] was 0. Further, the “tox21-are-bla-p1-viability (curve rank)” value in data set [4] is 0. Also, the “tox21-ar-mda-kb2-luc-agonist-p3-viability (curve rank)” value in data set [5] is 0. Further, the “tox21-car-antagonist-p1-viability (curve rank)” value in data set [6] is on record as 0.
In the case of `CC(C)NNC(=O)c1ccncc1` [Iproniazid sulfate], in data set [1], the “tox21-car-agonist-p1-viability” value is given as 0. Also, in data set [2], the “tox21-ar-mda-kb2-luc-antagonist-p2-viability (curve rank)” value is given as 0. Besides, the “tox21-ap1-agonist-p1-viability” value in data set [3] was 0. For the same compound, in data set [4], the “tox21-are-bla-p1-viability (curve rank)” value is given as 0. Also, in data set [5], the “tox21-ar-mda-kb2-luc-agonist-p3-viability (curve rank)” value was 0. Also, in data set [6], the “tox21-car-antagonist-p1-viability (curve rank)” value is reported as 0.
On to `NC(=O)NC(=O)Cc1ccccc1` [Phenacemide], for which the “tox21-car-agonist-p1-viability” value in data set [1] (setting [7]) is listed as 0. In addition, the “tox21-ar-mda-kb2-luc-antagonist-p2-viability (curve rank)” value in data set [2] (setting [7]) is given as 0. Besides, in data set [3] (setting [7]), the “tox21-ap1-agonist-p1-viability” value was 0. Also, the “tox21-are-bla-p1-viability (curve rank)” value in data set [4] (setting [7]) is recorded as 0. For the same compound, in data set [5] (setting [7]), the “tox21-ar-mda-kb2-luc-agonist-p3-viability (curve rank)” value is 0. Besides, the “tox21-car-antagonist-p1-viability (curve rank)” value in data set [6] (setting [7]) is given as 0.
Take `Cc1ccc(S(=O)(=O)NC(=O)NN2CC3CCCC3C2)cc1` (stereo not drawn) [Gliclazide]: the “tox21-car-agonist-p1-viability” value in data set [1] is 0. Further, in data set [2], the “tox21-ar-mda-kb2-luc-antagonist-p2-viability (curve rank)” value is 0. In data set [3], the “tox21-ap1-agonist-p1-viability” value is on record as 0. The “tox21-are-bla-p1-viability (curve rank)” value in data set [4] was 0. Moreover, the “tox21-ar-mda-kb2-luc-agonist-p3-viability (curve rank)” value in data set [5] was 0. The “tox21-car-antagonist-p1-viability (curve rank)” value in data set [6] is listed as 0.
Regarding `c1ccc2c(CC3=NCCN3)cccc2c1` [Naphazoline hydrochloride], the “tox21-car-agonist-p1-viability” value in data set [1] is listed as 0. Besides, the “tox21-ar-mda-kb2-luc-antagonist-p2-viability (curve rank)” value in data set [2] is recorded as 0. Moreover, the “tox21-ap1-agonist-p1-viability” value in data set [3] is given as 0. In addition, in data set [4], the “tox21-are-bla-p1-viability (curve rank)” value is 0. Also, the “tox21-ar-mda-kb2-luc-agonist-p3-viability (curve rank)” value in data set [5] is 0. In data set [6], the “tox21-car-antagonist-p1-viability (curve rank)” value is 0.
For the compound `CC(=O)Nc1ccccc1` [Acetanilide], the “tox21-car-agonist-p1-viability” value in data set [1] is 0. For the same compound, the “tox21-ar-mda-kb2-luc-antagonist-p2-viability (curve rank)” value in data set [2] is reported as 0. The “tox21-ap1-agonist-p1-viability” value in data set [3] is 0. The “tox21-are-bla-p1-viability (curve rank)” value in data set [4] is listed as 0. For the same compound, in data set [5], the “tox21-ar-mda-kb2-luc-agonist-p3-viability (curve rank)” value was 0. The “tox21-car-antagonist-p1-viability (curve rank)” value in data set [6] was 0.
As to `O=C(O)CCCCC(=O)O` [Hexanedioic acid], the “tox21-car-agonist-p1-viability” value in data set [1] (setting [7]) is 0. Further, the “tox21-ar-mda-kb2-luc-antagonist-p2-viability (curve rank)” value in data set [2] (setting [7]) is 0. Further, the “tox21-ap1-agonist-p1-viability” value in data set [3] (setting [7]) was 0. Moreover, the “tox21-are-bla-p1-viability (curve rank)” value in data set [4] (setting [7]) is 0. For the same compound, the “tox21-ar-mda-kb2-luc-agonist-p3-viability (curve rank)” value in data set [5] (setting [7]) is 0. Moreover, the “tox21-car-antagonist-p1-viability (curve rank)” value in data set [6] (setting [7]) is 0.
Consider `Cc1ncc([N+](=O)[O-])n1CC(C)O` (stereo not drawn) [Secnidazole], for which the “tox21-car-agonist-p1-viability” value in data set [1] (setting [7]) was 0. The “tox21-ar-mda-kb2-luc-antagonist-p2-viability (curve rank)” value in data set [2] (setting [7]) is listed as 0. Further, the “tox21-ap1-agonist-p1-viability” value in data set [3] (setting [7]) is reported as 0. Besides, in data set [4] (setting [7]), the “tox21-are-bla-p1-viability (curve rank)” value is given as 0. For the same compound, the “tox21-ar-mda-kb2-luc-agonist-p3-viability (curve rank)” value in data set [5] (setting [7]) is 0. The “tox21-car-antagonist-p1-viability (curve rank)” value in data set [6] (setting [7]) is 0.
`O=C(CCNNC(=O)c1ccncc1)NCc1ccccc1` [Nialamide]: the “tox21-car-agonist-p1-viability” value in data set [1] is on record as 0. Also, in data set [2], the “tox21-ar-mda-kb2-luc-antagonist-p2-viability (curve rank)” value is 0. For the same compound, the “tox21-ap1-agonist-p1-viability” value in data set [3] is on record as 0. For the same compound, in data set [4], the “tox21-are-bla-p1-viability (curve rank)” value is recorded as 0. In data set [5], the “tox21-ar-mda-kb2-luc-agonist-p3-viability (curve rank)” value is recorded as 0. For the same compound, the “tox21-car-antagonist-p1-viability (curve rank)” value in data set [6] is listed as 0.
For `COc1cc(C(=O)NCCCCCC(=O)O)cc(OC)c1OC` [Capobenic acid], the “tox21-car-agonist-p1-viability” value in data set [1] (setting [7]) is 0. Further, the “tox21-ar-mda-kb2-luc-antagonist-p2-viability (curve rank)” value in data set [2] (setting [7]) is recorded as 0. Besides, in data set [3] (setting [7]), the “tox21-ap1-agonist-p1-viability” value is reported as 0. Further, the “tox21-are-bla-p1-viability (curve rank)” value in data set [4] (setting [7]) was 0. In addition, the “tox21-ar-mda-kb2-luc-agonist-p3-viability (curve rank)” value in data set [5] (setting [7]) is recorded as 0. Further, the “tox21-car-antagonist-p1-viability (curve rank)” value in data set [6] (setting [7]) was 0.
Consider `CCC(=O)O[C@]1(C(=O)SCF)[C@H](C)C[C@H]2[C@@H]3C[C@H](F)C4=CC(=O)C=C[C@]4(C)[C@@]3(F)[C@@H](O)C[C@@]21C` [Fluticasone propionate], for which, in data set [1], the “tox21-car-agonist-p1-viability” value was 0.67. For the same compound, in data set [2], the “tox21-ar-mda-kb2-luc-antagonist-p2-viability (curve rank)” value is reported as 0. The “tox21-ap1-agonist-p1-viability” value in data set [3] is given as 0. Besides, the “tox21-are-bla-p1-viability (curve rank)” value in data set [4] is given as 0. For the same compound, the “tox21-ar-mda-kb2-luc-agonist-p3-viability (curve rank)” value in data set [5] is given as 0. Further, in data set [6], the “tox21-car-antagonist-p1-viability (curve rank)” value was 0.
On to `CCC1(c2cccc(O)c2)CCCCN(C)C1` (stereo not drawn) [Meptazinol hydrochloride], for which the “tox21-car-agonist-p1-viability” value in data set [1] (setting [7]) is 0. The “tox21-ar-mda-kb2-luc-antagonist-p2-viability (curve rank)” value in data set [2] (setting [7]) is reported as 0. Besides, the “tox21-ap1-agonist-p1-viability” value in data set [3] (setting [7]) is listed as 0. Besides, the “tox21-are-bla-p1-viability (curve rank)” value in data set [4] (setting [7]) is listed as 0. The “tox21-ar-mda-kb2-luc-agonist-p3-viability (curve rank)” value in data set [5] (setting [7]) was 0. Moreover, the “tox21-car-antagonist-p1-viability (curve rank)” value in data set [6] (setting [7]) was 0.
Regarding `CC1(C)S[C@@H]2[C@H](NC(=O)Cc3ccccc3)C(=O)N2[C@H]1C(=O)O.CC1(C)S[C@@H]2[C@H](NC(=O)Cc3ccccc3)C(=O)N2[C@H]1C(=O)O.c1ccc(CNCCNCc2ccccc2)cc1` [Benzathine penicillin G], the “tox21-car-agonist-p1-viability” value in data set [1] (setting [7]) was 0. Besides, in data set [2] (setting [7]), the “tox21-ar-mda-kb2-luc-antagonist-p2-viability (curve rank)” value is given as 0. The “tox21-ap1-agonist-p1-viability” value in data set [3] (setting [7]) is recorded as 0. The “tox21-are-bla-p1-viability (curve rank)” value in data set [4] (setting [7]) was 0. The “tox21-ar-mda-kb2-luc-agonist-p3-viability (curve rank)” value in data set [5] (setting [7]) is listed as 0. For the same compound, the “tox21-car-antagonist-p1-viability (curve rank)” value in data set [6] (setting [7]) is reported as 0.
